In assay [1] the target is T1, neurokinin-1 (NK-1) receptor (Homo sapiens, UniProt P25103).
T1 construct: a human glioblastoma-astrocytoma cell line that endogenously expresses the neurokinin-1 (NK-1) receptor; endogenous in cells; host or cells: U373 human glioblastoma-astrocytoma cells (membranes)
Nature of the assay: NK-1 Binding assay ([125I] Substance P competition, U373 cell membranes). Particulars: U373 membranes, [125I] Substance P displacement, read-out: NK-1 IC50. As to the method: NK-1 Binding assay. U373 cells, a human glioblastoma-astrocytoma cell line that endogenously expresses the neurokinin-1 (NK-1) receptor, were grown in a monolayer culture at 37° C. in 5% CO2 and fed with Minimum Essential Medium (MEM) supplemented with 10% fetal bovine serum. Membranes were prepared as follows: Cells were washed twice with ice-cold phosphate-buffered saline (pH 7.4) and then incubated for 5-10 minutes with ice-cold 10 mM Tris buffer (pH 7.4) containing 5 mM EDTA. Cells were removed from plates, homogenized, and centrifuged at 32,000×g for 20 minutes. The resulting supernatant was discarded, and the pellet resuspended by homogenization in 50 mM Tris buffer (pH 7.4) containing 1 mM EDTA and centrifuged at 32,000×g for 20 minutes. The resulting supernatant was discarded, and the pellet resuspended by homogenization in NK-1 binding assay buffer (50 mM Tris-HCL (pH 7.4), 3 mM MnCl2, 200 μg/ml BSA, 5 μg/ml chymostatin, 40 μg/ml bacitracin and 4 μg/ml leupeptin).
On the day of an experiment the membrane preparation was thawed, homogenized and diluted with NK-1 binding assay buffer to the appropriate concentration. […] Substance P, at a concentration of […], and concentrations of drugs ranging from 10000 to 0.01 nM. Samples were incubated for 30 min at 20° C. then filtered through GF/B glass fiber filters (pretreated with 1% polyethyleneimine and 0.3% Triton X-100) using a Brandel cell harvester. The filters were then washed with 10 ml ice cold 50 mM Tris-HCL (pH 7.4) containing 3 mM MgCl2. […] The amount of radioligand bound in the presence and absence of competitor was analyzed by plotting (-)log drug concentration versus the amount of radioligand specifically bound. The midpoint of the displacement curve (IC50, nM), signifies the potency.

The target of assay [2] is T2, human serotonin transporters (Homo sapiens, UniProt P31645).
T2 construct: expressed in transfected cells
The assay can be described thus: Serotonin transporter binding assay ([3H]-citalopram competition, HEK-hSERT cell membranes). The protocol: Serotonin transporter binding assay. HEK-293 cells that stably express human serotonin transporters (HEK-hSERT cells) were grown at 37° C. in 5% CO2 as a monolayer in medium consisting of EMEM supplemented with 10% fetal bovine serum and G418 sulfate (500 μg/ml). To prepare membranes for radioligand binding experiments, cells were rinsed twice with phosphate-buffered saline (138 mM NaCl, 4.1 mM KCl, 5.1 mM Na2PO4, 1.5 mM KH2PO4, 11.1 mM glucose, pH 7.4). Cells were transferred from plates to polypropylene tubes (16×100 mm), centrifuged at 1,200×g for 5 min and were frozen at −80° C. until assay. Following centrifugation, pellets were resuspended by homogenization in buffer consisting of 50 mM Tris (pH 7.7 at 25° C.), 120 mM NaCl and 5 mM KCl and then centrifuged at 32,000×g for 10 min. Following centrifugation, supernatants were discarded and pellets were resuspended in buffer consisting of 50 mM Tris (pH 7.4 at 25° C.), 150 mM NaCl and 5 mM KCl. Membrane homogenates (200 μl/plate) were incubated with 1 nM [^3H]-citalopram (specific activity=85 Ci/mmol) and increasing concentrations of test compounds for 1 hr at 25° C. in a total volume of 250 μl. The assay buffer consisted of 50 mM Tris (pH 7.4 at 25° C.), 120 mM NaCl and 5 mM KCl (pH 7.4 with conc. HCl). Plates were incubated for 1 hr at 25° C., then filtered through 0.5% PEI treated Whatman GF/B filters using a Brandel cell harvester. Filters were washed three times with 3 ml of ice-cold tris wash buffer. Non-specific binding was defined with 10 μM fluoxetine. Amount of radioligand bound in the presence and absence of competitor was analyzed by plotting (-)log drug concentration versus the amount of radioligand specifically bound. The midpoint of the displacement curve (IC50, nM), signifies the potency. Ki values can be calculated using the method of Cheng and Prusoff (Cheng and Prusoff, BiochemicalPharmacology, Vol 22, pp. 3099-3108, Pergamon Press (1973)).

Setting [3] is: Table 2, HEK-hSERT membranes, [3H]-citalopram displacement, read-out: SERT IC50.
Setting [4] is: Table 1, HEK-hSERT membranes, [3H]-citalopram displacement, read-out: SERT IC50.

Read-outs that look alike come from different tables or passages of the source. Some results are limits rather than exact numbers.

T2 sequence (P31645 whole entry): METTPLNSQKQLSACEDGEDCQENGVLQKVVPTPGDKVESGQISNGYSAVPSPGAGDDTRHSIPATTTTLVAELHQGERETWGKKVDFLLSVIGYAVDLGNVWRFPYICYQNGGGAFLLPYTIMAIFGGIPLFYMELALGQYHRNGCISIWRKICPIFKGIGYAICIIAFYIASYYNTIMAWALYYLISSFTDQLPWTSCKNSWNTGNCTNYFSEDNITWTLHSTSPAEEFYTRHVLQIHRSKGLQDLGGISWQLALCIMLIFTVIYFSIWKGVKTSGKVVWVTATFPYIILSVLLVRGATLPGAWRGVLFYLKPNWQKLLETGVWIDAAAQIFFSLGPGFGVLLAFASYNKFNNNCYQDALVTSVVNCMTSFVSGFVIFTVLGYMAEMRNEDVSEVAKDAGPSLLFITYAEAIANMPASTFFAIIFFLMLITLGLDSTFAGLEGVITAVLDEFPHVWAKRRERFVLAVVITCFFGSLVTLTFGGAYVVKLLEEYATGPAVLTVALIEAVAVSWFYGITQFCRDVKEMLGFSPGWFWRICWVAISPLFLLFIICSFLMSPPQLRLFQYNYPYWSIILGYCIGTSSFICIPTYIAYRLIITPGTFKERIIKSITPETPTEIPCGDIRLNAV
T1 sequence (P25103 whole entry): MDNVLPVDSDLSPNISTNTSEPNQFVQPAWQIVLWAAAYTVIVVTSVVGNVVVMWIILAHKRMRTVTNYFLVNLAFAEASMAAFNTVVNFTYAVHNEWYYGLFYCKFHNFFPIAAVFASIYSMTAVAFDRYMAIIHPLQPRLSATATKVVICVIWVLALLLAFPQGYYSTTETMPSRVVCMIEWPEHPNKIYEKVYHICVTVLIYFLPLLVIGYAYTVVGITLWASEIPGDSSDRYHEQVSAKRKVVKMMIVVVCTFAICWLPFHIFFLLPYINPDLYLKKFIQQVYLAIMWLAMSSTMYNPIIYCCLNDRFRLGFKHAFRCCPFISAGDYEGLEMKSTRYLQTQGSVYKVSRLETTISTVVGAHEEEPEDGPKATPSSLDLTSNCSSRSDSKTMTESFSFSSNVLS

In general, IC50 refers to the concentration at which inhibition is half-maximal. Take `Fc1ccc(-c2cc(F)cc(COCC3(c4ccccc4)CCNCC3)c2)cc1`: the half-inhibitory concentration (IC50) in assay [1] (Table 2) was above 300 nM; in assay [2] (setting [3]), 0.01 to 100 nM.

Turning to `Cc1cc(COCC2(c3ccccc3)CCNCC2)cc(-c2ccc(C#N)cc2)c1`, the IC50 in assay [1] (Table 2) and in assay [2] (setting [3]) was 0.01 to 100 nM throughout.

Take `CN1CCC(COCc2cc(-c3ccc(C#N)cc3)cc(C(F)(F)F)c2)(c2ccc(-c3ccco3)cc2)CC1`: the IC50 in assay [1] (Table 2) was 0.01 to 100 nM; in assay [2] it was 100 to 300 nM.

Turning to `CN1CCC(COCc2cc(-c3ccc(F)cc3)cc(C(F)(F)F)c2)(c2ccccc2)CC1`, the concentration for half-maximal inhibition (IC50) in assay [1] (Table 2) and in assay [2] was 0.01 to 100 nM throughout.

For the molecule `Cc1nnnn1-c1cc(COCC2(c3ccccc3)CCNCC2)cc(C(F)(F)F)c1`, the concentration for half-maximal inhibition (IC50) in assay [1] (Table 1) fell in the range of 100 to 300 nM; in assay [2] (setting [4]), 0.01 to 100 nM.

Take `COc1ccc(-c2ccncc2)cc1COCC1(c2ccccc2)CCNCC1`: the results for the IC50 in assay [1] (Table 1) and in assay [2] (setting [4]) were above 300 nM and 0.01 to 100 nM, respectively.

For `COc1ccc(-c2cc(COCC3(c4ccccc4)CCN(C)CC3)cc(C(F)(F)F)c2)c(F)c1F`, the IC50 in assay [1] (Table 2) and in assay [2] was 0.01 to 100 nM each time.

`COc1cc(-c2cc(COCC3(c4ccccc4)CCNCC3)cc(C(F)(F)F)c2)ccc1C#N`: the IC50 in assay [1] (Table 2) and in assay [2] (setting [3]) was 0.01 to 100 nM throughout.

Turning to `Fc1ccc(-c2cc(COCC3(c4ccccc4)CCNCC3)cc(C(F)(F)F)c2)cc1Cl`, the half-inhibitory concentration (IC50) in assay [1] (Table 1) and in assay [2] (setting [4]) was 0.01 to 100 nM throughout.

Consider `COc1ccc(-c2cc(COCC3(c4ccccc4)CCN(C)CC3)cc(C(F)(F)F)c2)cc1F`, for which the IC50 in assay [1] (Table 2) and in assay [2] was 0.01 to 100 nM each time.

`CCOC(=O)c1ccccc1-c1cc(COCC2(c3ccccc3)CCNCC2)cc(C(F)(F)F)c1`: the concentration for half-maximal inhibition (IC50) in assay [1] (Table 2) was above 300 nM; in assay [2] (setting [3]), 100 to 300 nM.

On to `CCCCc1ccc(-c2cc(COCC3(c4ccccc4)CCNCC3)cc(C(F)(F)F)c2)cc1`, for which the IC50 in assay [1] (Table 2) and in assay [2] (setting [3]) was 0.01 to 100 nM in each case.

In the case of `FC(F)(F)c1cc(COCC2(c3ccccc3)CCNCC2)cc(-c2nnn[nH]2)c1`, the IC50 was in the range of 100 to 300 nM in assay [1] (Table 1) and 0.01 to 100 nM in assay [2] (setting [4]).

With `Cc1cc(-c2cc(COCC3(c4ccccc4)CCNCC3)cc(C(F)(F)F)c2)ccn1`, the 50% inhibitory concentration (IC50) in assay [1] (Table 1) and in assay [2] (setting [4]) was 0.01 to 100 nM throughout.

As to `FC(F)(F)c1cc(COCC2(c3ccccc3)CCNCC2)cc(-c2ccc(Cl)nc2)c1`, the IC50 in assay [1] (Table 1) and in assay [2] (setting [4]) was 0.01 to 100 nM each time.

Take `COc1cc(F)c(-c2cc(COCC3(c4ccccc4)CCNCC3)cc(C(F)(F)F)c2)cc1F`: the 50% inhibitory concentration (IC50) in assay [1] (Table 2) and in assay [2] (setting [3]) was 0.01 to 100 nM throughout.

As to `Nc1ccc(-c2cc(COCC3(c4ccccc4)CCNCC3)cc(C(F)(F)F)c2)cn1`, the 50% inhibitory concentration (IC50) in assay [1] (Table 1) and in assay [2] (setting [4]) was 0.01 to 100 nM in each case.

`Fc1cccc(-c2cc(COCC3(c4ccccc4)CCNCC3)cc(C(F)(F)F)c2)c1`: the IC50 in assay [1] (Table 1) and in assay [2] (setting [4]) was 0.01 to 100 nM each time.

In the case of `Cc1cnccc1-c1cc(COCC2(c3ccccc3)CCNCC2)cc(C(F)(F)F)c1`, the 50% inhibitory concentration (IC50) in assay [1] (Table 1) and in assay [2] (setting [4]) was 0.01 to 100 nM throughout.

In the case of `CC(=O)Nc1ccc(-c2cc(COCC3(c4ccccc4)CCNCC3)cc(C(F)(F)F)c2)cc1`, the concentration for half-maximal inhibition (IC50) in assay [1] (Table 2) and in assay [2] (setting [3]) was 0.01 to 100 nM each time.

For the molecule `COc1ccc(-c2ccc(C#N)nc2)cc1COCC1(c2ccccc2)CCNCC1`, the IC50 is 100 to 300 nM in assay [1] (Table 1) and 0.01 to 100 nM in assay [2] (setting [4]).

Take `CN1CCC(COCc2cc(-c3ccc(C#N)cc3)cc(C(F)(F)F)c2)(c2cccc(C(F)(F)F)c2)CC1`: the 50% inhibitory concentration (IC50) in assay [1] (Table 2) and in assay [2] was 0.01 to 100 nM throughout.

With `COc1cc(-c2cc(COCC3(c4ccccc4)CCNCC3)cc(C(F)(F)F)c2)c(Cl)cn1`, the figures for the half-inhibitory concentration (IC50) in assay [1] (Table 1) and in assay [2] (setting [4]) were above 300 nM and 0.01 to 100 nM, respectively.

As for `COc1ccc(-c2cc(COCC3(c4ccccc4)CCNCC3)cc(C(F)(F)F)c2)c(OC)c1`, the IC50 in assay [1] (Table 1) and in assay [2] (setting [4]) was 0.01 to 100 nM throughout.

With `O=C(OCc1ccccc1)c1cccc(-c2cc(COCC3(c4ccccc4)CCNCC3)cc(C(F)(F)F)c2)c1`, the figures for the IC50 in assay [1] (Table 2) and in assay [2] (setting [3]) were above 300 nM and 0.01 to 100 nM, respectively.
